The values that follow come from patent publication US10947196B2, “Beta adrenergic agonist and methods of using the same” (CURASEN THERAPEUTICS, INC., priority 2019, dated 2021).

Series [1] can be described thus: Rat CNS exposure measurement (plasma, CSF, brain). In kind it is in vivo, male SD rats. As to conditions: male, SD.
Series [2] is described as follows: Rat pharmacokinetic studies. Format: in vivo, male SD rats. Also noted: AUClast/D: unit not given here. The settings on record: for AUC(0-inf) / C0 / half-life / Vd / Cmax / Tmax / MRT inf / AUC(0-t): male, SD; for Vd: read-out: Vss—obs; for MRT inf: read-out: MRTInf—obs. The protocol: The rat pharmacokinetics studies of exemplary compounds 03-3, 03-5, and 03-115 were conducted with male SD rats. These rats were typically about 6-8 weeks old, weighing 200 g to 300 g. Animals were fasted overnight and free access to food 4 hours after dosing. A required volume of vehicle was added to reach the target concentration of the test article and vehicle component to prepare for the dosing. The dosing vehicle was PEG400 or 30% PEG400 in saline for IV, or 0.5% methylcellulose in water for PO. For IV dosing, the animals were administered intravenously via tail vein. For PO dosing, the animals were administered via oral gavage. After dosing, blood sample was collected (˜0.2 mL per time point) through jugular vein or heart puncture. Blood of each sample was transferred into plastic micro centrifuge tubes containing EDTA-K2. Collection tubes with blood samples and anticoagulant were inverted several times for proper mixing of the tube contents and then placed on wet ice. The blood samples were centrifuged at 2000 g for 5 minutes at 4° C. to obtain plasma which was stored in a freezer at −75±15° C. prior to analysis. Samples were analyzed using LC-MS/MS. WinNonlin were used for pharmacokinetic calculations.

Series [3] in a line: Hepatocyte stability (dog). Format: in vitro ADME. As to conditions: 0.5×10^6 viable cells/mL. The protocol: 10 mM and 100 μM stock solutions of test compound(s) and a positive control were prepared in appropriate solvent (DMSO). In separate conical tubes, the 10 mM test compound and the positive control were diluted to 100 μM by combining 198 μL of 50% acetonitrile/50% water and 2 μL of 10 mM stock. The 100 μM test compound and the positive control were diluted to 30 μM by combining 140 μL of 50% acetonitrile/50% water and 60 μL of 100 μM stock solution. The 100 μM test compound and the positive control were diluted to 10 μM by combining 180 μL of 50% acetonitrile/50% water and 20 μL of 100 μM stock solution. The 100 μM test compound and the positive control were diluted to 3 μM by combining 194 μL of 50% acetonitrile/50% water and 6 μL of 100 μM stock solution.
Incubation medium (William's E Medium supplemented with GlutaMAX) and hepatocyte thawing medium was placed in a 37° C. water bath, and allowed to warm for at least 15 minutes prior to use. A vial of cryopreserved hepatocytes from storage was then removed, ensuring that the vial remains at cryogenic temperatures until thawing process ensues. Cells were thawed by placing the vial in a 37° C. water bath and gently shaking the vial for 2 minutes. After thawing was completed, the vial was sprayed with 70% ethanol and transferred to a biosafety cabinet.
A wide-bore pipette tip was used to transfer hepatocytes into 50 mL conical tube containing thawing medium. The 50 mL conical tube was placed into a centrifuge and spun at 100 g for 10 minutes. Upon completion of spin, the thawing medium was aspirated and the hepatocytes were resuspended in enough incubation medium to yield ˜1.5×10^6 cells/mL.
Using AOPI staining solution, cells were counted and the viable cell density was determined. Cells with poor viability (<75% viability) are not acceptable for use. […]
All calculations were carried out using Microsoft Excel. Peak areas were determined from extracted ion chromatograms. […]
The in vitro half-life (in vitro t1/2) was determined from the slope value: in vitro t1/2=0.693/k

SMILES strings stand for the structures. Where two headings read alike, the source gives them in different places.

Take `Cc1ncccc1[C@@H](O)CNC(C)(C)C` [Compound 03-115]: the concentration at 1 h in series [1] (in vivo, SC 1 mg/kg, read-out: Concentration, Plasma) was 149 ng/mL. The concentration at 1 h in series [1] (in vivo, sc, 1 mg/kg, SC 1 mg/kg, read-out: Concentration, Brain) came out at 142 ng/g. Also, the concentration at 1 h in series [1] (in vivo, sc, 1 mg/kg, SC 1 mg/kg, read-out: Concentration, CSF) stood at 56.2 ng/mL. Moreover, the Cl_obs in series [2] (IV 1 mg/kg) is reported as 103 mL/min/kg. In series [2] (PO 5 mg/kg), this compound returned an F of 23%. In addition, in series [2] (in vivo, IV 1 mg/kg), the area under the curve AUC(0-inf) came out at 164 ng·h/mL, the C0 was determined as 512 ng/mL, the half-life was 21.6 min and the Vd worked out at 2.4 L/kg. For the same compound, in series [2] (in vivo, PO 5 mg/kg), the AUC(0-inf) amounted to 192 ng·h/mL, the highest level (Cmax) was 174 ng/mL, the Tmax was determined as 15 min and the half-life was 96.6 min. The MRT inf in series [2] (in vivo, PO 5 mg/kg) is 1.06 h. Moreover, the “Hepatocyte stability, Dog” value in series [3] is given as 8.13 μL/min/10^6 cells.
With `CC(C)(C)NC[C@H](O)c1cccc(C(F)(F)F)n1` [Compound 03-3], the concentration at 1 h in series [1] (CSF, iv, 1 mg/kg, IV 1 mg/kg, read-out: Concentration, CSF) was determined as 142 ng/mL. The concentration at 1 h in series [1] (brain, iv, 1 mg/kg, IV 1 mg/kg, read-out: Concentration, Brain) came to 680 ng/g. Also, the concentration at 1 h in series [1] (plasma, iv, 1 mg/kg, IV 1 mg/kg, read-out: Concentration, Plasma) stood at 199 ng/mL. In series [2] (IV 1 mg/kg), the AUClast/D was found to be 546, the “AUC—% Extrap—obs” value is 1.14% and the Cl_obs was 30.2 mL/min/kg. Further, in series [2] (PO 5 mg/kg), the AUClast/D is listed as 845, the “AUC—% Extrap—obs” value turned out to be 0.0970% and the F is 153%. Further, the AUC(0-t) in series [2] (in vivo, IV 1 mg/kg) is 546 ng·h/mL. Besides, in series [2] (plasma, IV 1 mg/kg), the AUC(0-inf) is 552 ng·h/mL, the C0 turned out to be 388 ng/mL, the half-life is 76.8 min and the MRT inf is 1.61 h. Moreover, the Vd in series [2] (plasma, IV 1 mg/kg) was 2.92 L/kg. Also, in series [2] (plasma, PO 5 mg/kg), the AUC(0-inf) was found to be 4230 ng·h/mL, the AUC(0-t) turned out to be 4220 ng·h/mL, the Cmax was 818 ng/mL and the Tmax came out at 70.2 min. Besides, in series [2] (plasma, PO 5 mg/kg), the half-life is 146 min and the MRT inf was 3.93 h. In addition, in series [3], the “Hepatocyte stability, Dog” value is reported as 5.3 μL/min/10^6 cells.
`CC(C)(C)NC[C@H](O)c1cccc(C#N)n1` [Compound 03-5, (S)-6-(2-(tert-butylamino)-1-hydroxyethyl)picolinonitrile]: the concentration at 1 h in series [1] (CSF, IV 1 mg/kg, read-out: Concentration, CSF) is 113 ng/mL. Also, the concentration at 1 h in series [1] (CSF, PO 5 mg/kg, read-out: Concentration, CSF) was found to be 242 ng/mL. For the same compound, the concentration at 1 h in series [1] (brain, IV 1 mg/kg, read-out: Concentration, Brain) was found to be 267 ng/g. Further, the concentration at 1 h in series [1] (brain, PO 5 mg/kg, read-out: Concentration, Brain) stood at 497 ng/g. In series [1] (plasma, IV 1 mg/kg, read-out: Concentration, Plasma), the concentration at 1 h amounted to 184 ng/mL. Also, in series [1] (plasma, PO 5 mg/kg, read-out: Concentration, Plasma), the concentration at 1 h amounted to 642 ng/mL. In addition, in series [2] (IV 1 mg/kg), the AUClast/D came out at 461, the “AUC—% Extrap—obs” value turned out to be 0.457% and the Cl_obs was found to be 37.3 mL/min/kg. Further, in series [2] (PO 5 mg/kg), the AUClast/D turned out to be 450, the “AUC—% Extrap—obs” value amounted to 4.10% and the F worked out at 101%. Also, in series [2] (plasma, IV 1 mg/kg), the AUC(0-inf) is 463 ng·h/mL, the area under the curve AUC(0-t) was determined as 461 ng·h/mL, the C0 is 468 ng/mL and the half-life is 38.6 min. Moreover, in series [2] (plasma, IV 1 mg/kg), the MRT inf amounted to 0.873 h and the Vd came to 1.89 L/kg. For the same compound, in series [2] (plasma, PO 5 mg/kg), the area under the curve AUC(0-inf) came to 2340 ng·h/mL, the area under the curve AUC(0-t) worked out at 2250 ng·h/mL, the Cmax stood at 717 ng/mL and the time to peak (Tmax) worked out at 45 min. In addition, in series [2] (plasma, PO 5 mg/kg), the half-life was 96.6 min and the MRT inf worked out at 2.62 h. For the same compound, the “Hepatocyte stability, Dog” value in series [3] is 5.94-7.63 μL/min/10^6 cells.
